Here are results for 2 molecules from paper PMC10125330 (ACS Bio & Med Chem Au, 2022).

Where a SMILES comes first, the peptide text is derived from it.

Broadly, the IC50 is the concentration that inhibits the measured activity by half. The low end stands for higher potency, the high end for lower potency.

The target in test [1] is T1, EV71-2A^pro (Human enterovirus 71, UniProt Q66478).
T1 sequence (Q66478 863-1012 limits assumed): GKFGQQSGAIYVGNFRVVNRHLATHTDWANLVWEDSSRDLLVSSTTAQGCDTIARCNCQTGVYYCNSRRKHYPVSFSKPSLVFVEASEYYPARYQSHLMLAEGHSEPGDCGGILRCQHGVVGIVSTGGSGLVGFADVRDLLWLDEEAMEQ
The experiment in a line: EV71-2Apro inhibition assay. Format: biochemical.

For test [2], the target named is T1, EV71-2A^pro. The experiment in a line: Kinetic activity assay. Format: biochemical. Conditions: from Km values, relative to native substrate (Km 21.3 μM).

At EV71-2A^pro [1], `CC[C@H](C)[C@H](NC(=O)[C@H](CCCCN)NC(=O)[C@H](CC(=O)O)NC(=O)[C@@H](N)CCCNC(=N)N)C(=O)NCC(=O)N[C@@H](Cc1ccccc1)C(=O)N[C@@H](CCCNC(=N)N)C(=O)NCC(=O)N[C@@H](CCCCN)C(=O)N[C@@H](Cc1ccccc1)C(=O)NCC(=O)N[C@@H](CCC(N)=O)C(=O)O` [Peptide II] (H-RDKIGFRGKFGQ-OH) registered an IC50 of 12.1 ± 1.2 µM.
Regarding “Dabcyl-RDKIGFRGKFGQDE-Edans-NH2 [Pseudosubstrate II]”, at EV71-2A^pro [2], the “higher affinity for EV71-2A^pro than the native substrate” value was 3 fold.
